Measurements published in US6667025B2 (Mitsubishi Pharma Corporation, priority 1997, dated 2003).

Experiments:
[1] = tested on: skin allograft, WKAH donor and F344 recipients; assay type: in vivo
From the text: Two MHC-incompatible rat strains were selected, WKAH donor (RT1^k) and F344 recipients (RT1^IV1). Full-thickness skin grafts (2.0×2.0 cm square) were transplanted to the lateral thorax of recipients and wrapped with sterile, bactericidal gauze. The chest was then wrapped with an elastic bandage. Five days after transplantation, the wraps were removed and the grafts inspected daily for rejection. Rejection was defined as more than 90% necrosis of graft epithelium.

[2] = tested on: skin allograft, LEW donor and F344 recipient; assay: Rat skin allograft survival, MHC-compatible strains; assay type: in vivo; settings: data not shown
[3] = tested on: cardiac allograft, WKAH donors and ACI recipients; assay: Heterotopic cardiac allograft survival, MHC-incompatible rat strains; assay type: in vivo
[4] = tested on: popliteal lymph node of (LEW×BN) F1 rats injected with LEW spleen cells; assay: Local GvHR, enlargement of popliteal lymph node; assay type: in vivo, rat
[5] = tested on: (LEW×BN)F1 recipients injected with LEW spleen cells; assay: Lethal GvHR in cyclophosphamide-pretreated recipients; assay type: in vivo, rat
Description: To examine the effect of FTY720 in preventing the lethal GvHR, splenic lymphocytes from LEW donor rats (1×10^8 spleen cells) were injected intravenously into cyclophosphamide-pretreated (LEW×BN)F1 recipients. Cyclophosphamide (Shionogi Co. Ltd; Osaka, Japan) was given at a 200 mg/kg dose.

circulating lymphocytes = assay: Circulating lymphocytes in peripheral blood of dogs; assay type: in vivo, dog; settings: oral
From the text: In dogs and monkeys, as well as rats, oral administration with FTY720 also decreases the number of circulating lymphocytes in peripheral blood. The reduction of the number of T cells was especially remarkable. Withdrawal of FTY720 treatment recovered the number of lymphocytes in peripheral blood to the normal level within 2 weeks.

[6] = tested on: male F344 rat lymphocytes in lymphoid tissues; assay: Homing of transfused male lymphocytes in female rats (SRY PCR); assay type: in vivo; settings: 0.1 or 1 mg/kg oral 2.5 h before transfusion; 30 min after transfusion
Description: The decrease in circulating lymphocytes by FTY720 is due to the acceleration of lymphocyte homing to mesenteric and peripheral lymph nodes and Peyer's patches (FIGS. 13A-13D). For this experiment, after 2.5 h of administering FTY720 at 0.1 mg/kg or 1 mg/kg orally to female F344 rats, lymphocytes from male F344 rat were transfused intravenously into the rats. Thirty minutes after the transfusion, the peripheral blood, spleen, mesenteric lymph nodes, axillary lymph nodes, Peyer's patches, liver, and lung were removed. PCR amplification of SRY-1 gene, which is Y-chromosome specific, detected male lymphocytes in the tissue samples. The PCR primer sequences for SRY amplification were taken from a previous report (47). […]
An aliquot (10 μl) of the PCR products was electrophoresed on 2.5% agarose gel and the amplified DNA-fragments stained with SYBR Green I (Molecular Probes). The fluorescence intensity of the specific bands was visualized and measured by a fluorescence image analyzer (Fluor Imager 575, Molecular Dynamics). The number of male cells in 10^6 female cells, calculated with a standard curve made from a control amplification of SRY from a standard DNA extracted from 10^6 […], is indicated for each tissue noted in FIGS. 13A-13D.

lymphocytes = assay: Numbers of lymphocytes in blood, spleen, mesenteric lymph nodes and Peyer's patches in vivo; parameters: species or system rat; settings: 24 hours
Description: FTY720 at 0.1 and 1 mg/kg were administered orally to 6 week-old male F344 rats. At 3, 12, 24 hours after administration, peripheral blood, spleen, mesenteric lymph nodes, and Peyer's patches were removed and the lymphocyte numbers of these tissues were measured by using a flow cytometer, as known in the art (EPICS XL).

[7] = tested on: calcein-prelabeled lymphocytes in lymphoid tissues; assay: Lymphocyte homing of calcein-prelabeled lymphocytes; assay type: in vivo, rat; settings: oral 1 mg/kg
Description: The lymphocytes prepared from mesenteric lymph nodes and axillary lymph nodes in 5 to 6-week old F344 rats were pre-labeled with calcein-AM (Molecular Probes) at 1 μmol/L on ice for 30 min. After the labeling with calcein-AM, the lymphocytes were washed three times with ice-cold saline. Thereafter, the calcein-prelabeled lymphocytes at 5×10^7 cells were transfused through the tail vein to sex and age-matched F344 rats. FTY720 at 0.1 or 1 mg/kg was orally administered 2.5 hours before the transfusion. After 30 min. of the transfusion, mesenteric lymph nodes, axillary lymph nodes, Peyer's patches, and spleen were removed and the numbers of calcein prelabeled lymphocytes in these tissues were measured using flow cytometer (EPICS-XL). To examine the influence of antibodies against lymphocyte homing receptors, the calcein-prelabeled lymphocytes were treated with 60 μg/ml of either mouse anti-rat CD49d Mab (clone TA-2) (49), hamster anti-rat CD62L Mab (clone HRL3) (50), mouse anti-rat CD11a Mab (clone WT.1) (51), or control Ig at 4° C. for 30 min. Anti-rat lymphocyte-homing receptor Mabs and control Ig were purchased from Seikagaku-kougyou Ltd. or Pharmingen, respectively.

For `CCCCCCCCc1ccc(CCC(N)(CO)CO)cc1.Cl` [FTY720, 2-amino-2[2-(4-octylphenyl)ethyl]propane-1,3-diol hydrochloride], the “median survival time (MST) of skin graft” value ([1]; 10 mg/kg for 14 days) was 27.0 days, the “oral dose that significantly prolonged skin graft survival” value ([1]; oral, WKAH to F344 rats) was at least 0.1 mg/kg and the “renal toxicity or other toxic signs” value ([1]; rat, in vivo, po, 10 mg/kg) was “without renal toxicity or other toxic signs”. For the same molecule, the “dose that significantly prolonged skin allograft survival” value [2] was at least 0.03 mg/kg, the “MST of cardiac allograft” value ([3]; 0.1 mg/kg for 14 days) was 20.0 days and the “MST of cardiac allograft” value ([3]; 0.3 mg/kg for 14 days) was 21.0 days. For the same molecule, the “MST of cardiac allograft” value ([3]; 1 mg/kg for 14 days) was 25.5 days, the “MST of cardiac allograft” value ([3]; 3 mg/kg for 14 days) was 29.5 days and the “MST of cardiac allograft” value ([3]; 10 mg/kg for 14 days) was 58.5 days. For the same molecule, the “long-term or indefinite cardiac graft survival” value ([3]; 10 mg/kg, in three out of eight recipient rats) was “more than 100 days”, the “dose that significantly prolonged cardiac allograft survival” value ([3]; vs control) was at least 0.1 mg/kg and the “immunosuppressive potency relative to CsA” value ([4]; local GvHR in rats) was 30 fold. The “oral dose that significantly inhibited enlargement of popliteal lymph node” value ([4]; oral, local GvHR) was at least 0.1 mg/kg, the “survival of recipient rats” value ([5]; 0.3 mg/kg, four out of five rats, without GvHR-associated symptoms) was “more than 60 days” and the GvHR-associated symptoms ([5]; oral 0.1 mg/kg for 30 days) was “prevented the development of GvHR-associated symptoms”. For the same molecule, the “MST of recipient rats” value ([5]; oral 0.1 mg/kg for 30 days) was 50.0 days, the “number of circulating lymphocytes in peripheral blood” value (circulating lymphocytes) was “decreases” and the “pre-labeled lymphocytes in peripheral lymph nodes, Peyer's patch, mesenteric lymph nodes” value [6] was “accelerated lymphocyte homing”. The “pre-labeled lymphocytes in spleen” value [6] was “reduction”, the “Number of lymphocytes, Peyer's patches” value (lymphocytes; 0.1 mg/kg p.o.) was 551.5 ± 103.5 × 10^4 cells/tissue and the “Number of lymphocytes, mesenteric lymph nodes” value (lymphocytes; 0.1 mg/kg p.o.) was 421.8 ± 27.4 × 10^5 cells/tissue. For the same molecule, the “Number of lymphocytes, peripheral blood” value (lymphocytes; 0.1 mg/kg p.o.) was 1071.9 ± 59.3 cells/μL, the “Number of lymphocytes, spleen” value (lymphocytes; 0.1 mg/kg p.o.) was 652.3 ± 31.2 × 10^5 cells/tissue and the “Number of lymphocytes, Peyer's patches” value (lymphocytes; 1 mg/kg p.o.) was 628.8 ± 61.1 × 10^4 cells/tissue. For the same molecule, the “Number of lymphocytes, mesenteric lymph nodes” value (lymphocytes; 1 mg/kg p.o.) was 434.3 ± 33.2 × 10^5 cells/tissue, the “Number of lymphocytes, peripheral blood” value (lymphocytes; 1 mg/kg p.o.) was 667.2 ± 199.8 cells/μL and the “Number of lymphocytes, spleen” value (lymphocytes; 1 mg/kg p.o.) was 538.0 ± 74.1 × 10^5 cells/tissue. The “homing of calcein-prelabeled lymphocytes to mesenteric lymph nodes and Peyer's patches” value [7] was “induced lymphocyte homing”.
